Entries after “also recorded” stand apart in the source; their conditions may differ. Each block holds one molecule with its values, some of them ahead of it.
Legend:
[1] = test system: tail lymphedema in SKH-1 mice; assay: Tail volume quantitation, NSAID / sTNF-R1 treatment (Example 4); assay type: in vivo, mouse
Experimental: Tail lymphedema was induced in female hairless, immunocompetent SKH-1 mice (Charles River Laboratories, Boston, Mass.) as described. The mice were anesthetized with a solution of ketamine, xylazine, and saline (0.07 ml i.p.). The skin of the tail was circumferentially incised 16 mm distal to its base. The major lymphatic trunks were identified by subcutaneous injection of methylene blue distal to the incision and ablated by limited cautery. The mice were carefully monitored for any visceral signs of distress. Sham surgery controls were treated identically, but without lymphatic cautery. […] All mice were sacrificed in accordance with American Veterinary Medical Association guidelines for rodent euthanasia after day 11 days of observation. After sacrifice, 500 mg sections of the tail were harvested for paraffin embedding and RNA extraction. For all in vivo experiments, housing, husbandry and experimentation were in strict accordance with the Animal Welfare Act and the Guide for the Care and Use of Laboratory Animals.
Sham surgery and normal controls were treated identically with the NSAID (n=8 per group), sTNF-R1 (n=11 per group), or PBS (n=11 normal controls, n=8 sham surgery controls).
Tail volume was measured serially in each mouse, using a digital photographic application of the truncated cone approximation as described.

[2] = test system: tail lymphedema in SKH-1 mice; assay: Histology and histomorphometric quantitation of epidermal thickness (Example 4); assay type: in vivo, mouse; conditions: for histological changes in mice with lymphedema: hematoxylin/eosin
Experimental: Immediately after sacrifice, 0.5-g sections of tail were harvested for histological analysis and RNA extraction. Sections extended from a point 4 mm proximal to the surgical incision to 8 mm beyond it. The specimens were fixed overnight in 4% paraformaldehyde, embedded in paraffin, cut into 5-μm sections, stained with hematoxylin and eosin (Richard-Allan Scientific, Kalamazoo, Mich.), and examined by light microscopy.
Epidermal thickness was measured serially using digital images of histology slides stained with hematoxylin and eosin. Processing and analysis were performed using Adobe Photoshop CS4 and ImageJ (http://rsbweb.nih.gov/ij) as previously described with modifications (Sanders J E, et al. Comput Methods Programs Biomed. 1999; 59:167-180). Quantitative measurements were imported to Prism 5 software (GraphPad Software Inc., La Jolla, Calif.) for statistical analysis and graphing.

[3] = test system: TNF-α, MCP-1, VEGF-C, VEGF-D, VEGFR-3, Prox1, LYVE-1 expression; assay: Targeted gene expression analysis by quantitative real-time RT-PCR in tail skin; assay type: in vivo, mouse
Experimental: Primers and probes were from Assays-on-Demand (Applied Biosystems, Foster City, Calif.). cDNA was synthesized from 5 μg of total RNA with Taqman reverse-transcription reagents (Applied Biosystems) and amplified in triplicate at 50° C. for 2 minutes and 95° C. for 10 minutes, followed by 40 cycles of 95° C. for 15 seconds and 60° C. for 1 minute. Reactions without template and/or enzyme were used as negative controls. 18S ribosomal RNA served as an internal control. A standard curve derived from embryonic mouse RNA was plotted for each target gene by linear regression using SPSS software (v. 11.0, Applied Biosystems). RNA quantity was expressed relative to the corresponding 18S control. Fold differences were calculated by dividing the experimental results by the pooled normal results and were plotted on a log 10 scale.

[4] = test system: cytokine levels in tail skin; assay: Tissue cytokine assays (Luminex) in tail skin homogenates; assay type: in vivo, mouse
Experimental: Cytokine levels in tail skin were measured in normal controls and mice with untreated, NSAID-treated, and sTNF-R1-treated lymphedema (n=3 per group) sacrificed on postoperative day 7. The Luminex LabMap200 System was used to measure the levels of 42 cytokines from the supernatant of tissue homogenates. Multiplex cytokine kits were purchased from Panomics (Fremont, Calif.), and the assay was performed according to the manufacturer's recommendation with the following modifications: 25-50 μl of samples, standards, and controls were added in duplicate to 96-well filter plates pre-configured with a panel of anti-cytokine antibodies covalently linked to unique polystyrene beads. The plate was incubated overnight at 4° C. in the dark with shaking at 500 rpm, vacuum aspirated, and washed three times with 140 μl of wash buffer to remove unbound antigen. Biotinylated detection antibody solution (25 μl) was added to each well and incubated for 1 hour with shaking at 500 rpm at room temperature. The plate was incubated with 50 μl of streptavidin-phycoerythrin for 35 minutes and then with 120 μl of reading buffer for 3 minutes at room temperature with shaking. After laser excitation, digital images of the bead array were captured with a CCD camera and analyzed on a computer workstation with BeadView software.

Log Kow = assay type: physicochemical
[5] = Permeation through the stratum corneum of human cadaver skin; assay type: in vitro ADME; conditions: cumulative permeation over time, FIG. 33
Excerpt: FIG. 33. Ketoprofen chemistry. (A) Chemical formula of ketoprofen. (B) Ester modification to improve bioavailability. […] Closed triangles: Methyl ester. Open circles: ethyl ester. Open squares: isopropyl ester. x axis=time in hours.

[6] = test system: post-surgical lymphedema in the tails of SKH-1 mice; assay: Tail volume quantitation, VEGF-C in experimental lymphedema (Example 3); assay type: in vivo, mouse; conditions: single subcutaneous dose of 200 ng on post-surgical day 3
Experimental: Post-surgical lymphedema was experimentally created in the tails of female hairless, immunocompetent SKH-1 mice (Charles River Laboratories, Boston Mass.) as described in example 1, above. Therapeutic VEGF-C lymphangiogenesis in experimental lymphedema. On post-surgical day 3, the treated animal subjects received parenteral recombinant human VEGF-C (R&D Systems Inc., Minneapolis, Minn.). Each animal received a single subcutaneous dose of 200 ng of the growth factor (2 mg/mL), equally divided between the proximal and distal wound edges. Untreated lymphedema subjects received subcutaneous saline analogously administered.
Tail volume was serially quantitated in 19 mice divided into four treatment categories: normal, untreated lymphedema, VEGF-C-treated lymphedema, and surgical sham controls. For animals who had surgical intervention, this was defined to have occurred on day 0. All of the mice had quantitation of baseline tail volume; thereafter, volume was quantitated at defined time points: days 2, 4, 7, 9, 11, 14, 16, 18, 21, 23 28, 35, 42, 50, 57, 63, 65, 67 and 71. […] A single digital image of each tail was recorded with an OLYMPUS D520 Zoom digital camera at 1600×1200SHQ resolution. […] The diameter of the tail was digitally, serially quantitated at distances of 8 mm beginning at the proximal end of the tail. […]

[7] = test system: post-surgical lymphedema in the tails of SKH-1 mice; assay: Histology of tail sections (H&E), VEGF-C study; assay type: in vivo, mouse; conditions: day 11
Excerpt: For histological evaluation, 11 mice were sacrificed on Day 11 of observation. Immediately following sacrifice, 0.5 gm sections of the tail were harvested. Sections extended from a point 4 mm proximal to the surgical incision to 8 mm beyond it. The specimens were fixed overnight in 4% paraformaldehyde. After paraffin embedding, 5 μm sections were stained with hematoxylin and eosin (H&E, Richard-Allan Scientific). After deparaffinization in xylene, sections were rehydrated though a series of graded alcohol steps starting with 100% EtOH and ending in 50% EtOH. Slides remained in toluidine blue for 2 minutes and were then dehydrated through graded alcohol washes and covered with Cytoseal (Richard Allan Scientific).

[8] = test system: LYVE-1-positive lymphatic vessels; assay: LYVE-1 immunohistochemical staining, lymphatic vessel number and area; assay type: in vivo, mouse
Experimental: 5 μm-thick paraffin sections were de-paraffinized in xylene, re-hydrated in a graded series of ethanol, pretreated with target retrieval solution (Dako, Carpinteria, Calif.) in a pressure cooker, and incubated in a peroxidase block for 10 minutes. Sections were then incubated with rabbit polyclonal anti-LYVE-1 antibody (1:200, Upstate Cell Signaling Solutions, Lake Placid, N.Y.) for 1 hour at room temperature, followed by horseradish peroxidase (HRP)-conjugated secondary antibody for 30 minutes at room temperature and detection with DAB for 4 minutes (Envision System Kit, Dako). Tissue sections were counterstained with Gill 1 Hematoxylin (Richard-Allan Scientific, Kalamazoo, Mich.). for 15 seconds, then dehydrated in graded ethanol and coverslipped with CoverSafe (American Master*Tech, Lodi, Calif.).
5 μm-thick paraffin sections were prepared and stained for LYVE-1 as described in example 1, above.
Mean lymphatic vessel number was determined by averaging the number of total lymphatic vessels in all of the fields of each slide at 10× magnification. The observer was blinded to the treatment status of the animal in each case. Lymphedema was characterized by an increase in LYVE-1-positive vessel number/field that was not observed in normals or after VEGF-C-treatment: lymphedema, 7.3±4.0 (P=0.02 compared to normal); VEGF-C, 1.3±0.9 (N.S.); and normal, 1.0±0.8.
Lymphatic vessel area was quantitated according to the formula π·r1·r2. […] Both vessel number and size returned substantially to normal following exogenous administration of recombinant VEGF-C.

[9] = test system: clearance of luc+ splenocytes from lymphedematous tails of FVB/N mice; assay: Functional in vivo bioluminescence imaging of immune traffic, VEGF-C study; design: species or system mouse
Experimental: Experimental lymphedema was created surgically in the tails of 20 FVB/N female wild type mice (Jackson Laboratories, […]), using the technique described above, and functionally compared with normal mice (n=8). The lymphedematous mice were treated with human recombinant VEGF-C or with saline, as described above, on post-surgical day 3. For in vivo bioluminescence imaging, spleens from transgenic luc+ heterozygous animals, expressing firefly luciferase under the control of a chicken beta-actin promoter, as previously described (Beilhack et al., 2005; Cao et al., 2004), were placed into single cell suspension. These single cell suspensions consisted of different hematopoietic lineages: ˜40% were CD19+ B cells, ˜20% CD4+ T cells, ˜10-15% were CD8+ T cells, 3% NK1.1+ NK cells and the rest were GR.1+ granulocytes, Mac-1+ macrophages, CD11c+ dendritic cells and rarer cell populations. 4×10^6 splenocytes (>97% CD45+) in PBS were injected in a volume of […] into the tail interstitium/emission]×100%. 1 cm caudal to the site of surgery, in lymphedema mice and normal controls, respectively. […] The efficiency of cellular lymphatic drainage was determined by direct imaging of light emission, with quantitation of the relative change in light emission from that measured at 20 hours after cell injection, as follows: relative photon emission=[emissionday 7/emission20 hours]×100%.

Molecule: pegsunercept [sTNF-R1]
tail volume, % of baseline ([1]; day 7, lymphedema mice, s.c. every other day from day 3): 183.7±26.8%
edematous response (tail volume) of lymphedema mice ([1]; lymphedema mice, systemic s.c. treatment): significantly more edematous
effect on tail volume in normal and sham surgery mice ([1]; normal and sham surgery mice): no discernable effect
epidermal thickness (ET) compared to untreated LY mice ([2]; FIG. 14B): significantly increased
epidermal thickness increased, compared to untreated mice with lymphedema ([2]; day 11): 16.0±2.5%
histological changes in mice with lymphedema ([2]; day 11, listed as sTNFR1): no discernible amelioration
histological changes in mice with lymphedema ([2]; day 11, listed as sTNFR-1): exacerbates the pathology
expression of other targeted genes (other than TNF-α) ([3]; day 11): did not affect other genes
TNF-α expression (mRNA) ([3]; day 11, lymphedema mice): reduced TNF-α expression to control levels; also recorded: downregulated
VEGF-C expression (mRNA) ([3]; lymphedema mice): decreased
VEGFR-3 expression ([3]; lymphedema mice): decreased
MCP-1 tissue levels (protein) ([4]; postoperative day 7): further increased
MCP-3 tissue levels (protein) ([4]; postoperative day 7): significantly reduced
eotaxin tissue levels ([4]; postoperative day 7): decreased
MCP-3 tissue levels (protein) ([4]; postoperative day 7, listed as sTNFR-1): inhibited

Log Kow (Log Kow): 3.65
ability to permeate the stratum corneum of human cadaver skin [5]: most penetration
Molecule: COC(=O)C(C)c1cccc(C(=O)c2ccccc2)c1 (centres unmarked) [ketoprofen methyl ester]

Log Kow (Log Kow): 4.14
Molecule: CCOC(=O)C(C)c1cccc(C(=O)c2ccccc2)c1 (centres unmarked) [ketoprofen ethyl ester]

Log Kow (Log Kow): 4.56
Molecule: CC(C)OC(=O)C(C)c1cccc(C(=O)c2ccccc2)c1 (centres unmarked) [ketoprofen isopropyl ester]

B1: VEGF-C: parenteral recombinant human VEGF-C (R&D Systems Inc.), growth factor (protein, UniProt P49767 112-227, looked up)
Vascular endothelial growth …: AHYNTEILKSIDNEWRKTQCMPREVCIDVGKEFGVATNTFFKPPCVSVYRCGGCCNSEGLQCMNTSTSYLSKTLFEITVPLSQGPKPVTISFANHTSCRCMSKLDVYRQVHSIIRR
mean tail volume compared with untreated lymphedema [6]: significant decrease in volume; also recorded: diminution in the mean tail volume; also recorded: volume reduction, compared with untreated lymphedema, was evident by day 7
histological pattern of tail tissue [7]: substantial reversion to the normal pattern
LYVE-1-positive vessel number/field ([8]; 10x magnification, day 11): 1.3±0.9
average lymphatic area/field (LYVE-1-positive vessel area) ([8]; formula π·r1·r2, n=3): 2992±1311 μm^2
size and number of LYVE-1-positive skin lymphatics ([8]; vs untreated lymphedema): reduction in the observed size and number of these skin lymphatics; also recorded: reduction in the number and size of LYVE-1-positive vessels
clearance of bioluminescent immunocytes (immune traffic) ([9]; day 7 post-injection): ameliorated
relative photon density, % of the observed value 20 hours post-injection ([9]; day 7 post-injection (post-operative day 14), n=12): 24±9%
